The text below walks through data of publication PMC12797238 (ACS Infectious Diseases, 2025).

One may read the EC50 as the concentration at which the effect is half-maximal. A higher EC50 goes with weaker potency.

Experiment [1] concerns Toxoplasma tachyzoites mitochondrion. The experiment in a line: Toxoplasma mitochondrial membrane potential (MitoTracker, cytometry and microscopy). It is filed as cell-based, Toxoplasma gondii. The settings on record: 24 h at 3× EC50; for Mitotracker staining of T. gondii, microscopic observation: FCCP as uncoupler control. The procedure:
We used the MitoTracker Deep Red FM fluorescent probe (Invitrogen) to assess the mitochondrial membrane potential in Toxoplasma tachyzoites. […] After another 24 h of culture at 37 °C and 5% CO2, Mitotracker labeling was performed as described in the protocol provided by the manufacturer, with a 45 min incubation at 37 °C and 5% CO2 of the reconstituted dye diluted to 1/1000 in culture medium. Parasites were then fixed for 30 min in 4% (w/v) PFA (diluted in PBS), washed twice in PBS, scraped, syringed (with a 25 G needle), filtered on a 40 μm membrane, and resuspended in 1 mL of PBS. Parasites were then analyzed with an Aurora spectral cytometer (Cytek), using a 633 nm excitation laser and a 665 nm detector. 10,000 events were recorded. Mean fluorescence was plotted against vehicle-treated culture parasites using Prism 8.0 (GraphPad Software), and statistical significance was determined using one-way ANOVA with Tukey’s multiple-comparison test. The experiment was performed for three biologically independent replicates. For the membrane depolarization control, parasites were treated with 10 μM FCCP for 30 min prior to and during incubation with the Mitotracker dye.
Intracellular parasites and the host cell monolayer were then fixed 24 h later with 4% (w/v) PFA (diluted in PBS) for 20 min, and after fixation, cells were permeabilized with 0.3% (v/v) Triton X-100 (diluted in PBS) for 10 min. Costaining with the anti-F1β ATPase mitochondrial marker was performed as described below.

Experiment [2] concerns Human BJ Fibroblast. The experiment in a line: Drug sensitivity assay, dose–response curves, human BJ fibroblasts. In kind it is cell-based. The settings on record: mean, n ≥ 3. The text has this: (§1) Human fibroblasts, T. brucei, T. gambiense, P. falciparum, L. mexicana, and B. divergens were cultivated as described previously, and dose–response curves were obtained by their cultivation on 96 well plates in a 2-fold seriel dilution of the appropriate drug.

Experiment [3] deals with Trypanosoma brucei bloodstream forms. Kind of experiment: Drug sensitivity assay, dose–response curves, T. brucei. In kind it is cell-based. The settings on record: for EC50: bloodstream forms, mean, n ≥ 3; for T. brucei selectivity: relative to human BJ fibroblast EC50.
From the text: as §1

Experiment [4] relates to Trypanosoma gambiense bloodstream forms. Kind of experiment: Drug sensitivity assay, dose–response curves, T. gambiense. In kind it is cell-based.
From the text: as §1

In experiment [5] the test system is Leishmania mexicana axenic amastigotes. Kind of experiment: Drug sensitivity assay, dose–response curves, L. mexicana. It is filed as cell-based.
From the text: as §1

For experiment [6], the system named is Toxoplasma gondii tachyzoites (RH strain), intracellular stages. The experiment in a line: T. gondii lytic cycle plaque assay in HFF monolayers. It is filed as cell-based. The procedure:
T. gondii tachyzoites of the RH strain were routinely maintained through passages in a human foreskin fibroblasts (HFFs) monolayer (ATCC CRL-1634). HFFs and parasites were cultured in standard Dulbecco’s Modified Eagle Medium (DMEM), supplemented with 5% decomplemented fetal bovine serum (FBS), 2 mM L-glutamine, 100 U/mL penicillin, and 100 μg/mL streptomycin (Gibco) at 37 °C and with 5% CO2 in an incubator with a controlled atmosphere.
The lytic cycle of T. gondii tachyzoites was assessed by a plaque assay as described previously. Briefly, tachyzoites were allowed to invade monolayers of HFFs for 3 h before addition of the compounds or the DMSO vehicle and were subsequently cultivated for 7 days at 37 °C and 5% CO2. They were then fixed with 4% (w/v) paraformaldehyde (PFA, diluted in phosphate-buffered saline (PBS)) for 20 min and stained with a 0.1% crystal violet solution (V5265, Sigma-Aldrich), washed, and air-dried before imaging under an Olympus MVX10 microscope.
Figure S1. EC50 determination of selected compounds in Toxoplasma.
B) EC50 curves based on plaque
area measured from three independent plaque assays. Data are mean ± standard deviation. C)
vacuoles were counted for each con dition. Values represented are mean ± standard deviation of […]

For experiment [7], the system named is Babesia divergens intracellular stages. The experiment in a line: Drug sensitivity assay, dose–response curves, B. divergens. It is filed as cell-based.
From the text: as §1

Experiment [8] concerns Plasmodium falciparum intracellular stages. Kind of experiment: Drug sensitivity assay, dose–response curves, P. falciparum. It is filed as cell-based.
From the text: as §1

The subject of experiment [9] is T. brucei 427 bloodstream form mitochondria. Kind of experiment: Mitochondrial membrane potential in T. brucei (TMRE, flow cytometry). It is filed as cell-based, Trypanosoma brucei. The settings on record: 24 h at 3× EC50. The procedure: The mitochondrial membrane potential of T. brucei 427 bloodstream form was assessed using the fluorescent probe TMRE (Thermo Fisher Scientific) as described in ref . […] Untreated cells and cells preincubated with a 50 μM CCCP uncoupler for 30 min were used as negative and positive controls, respectively. Approximately 1 × 10^6 cells were incubated with 60 nM TMRE for 30 min, washed 1× with sterile PBS, and 5,000 events were measured on a Guava EasyCyte 8HT flow cytometer (Luminex) using a 488 nm excitation laser and a 583/26 nm detector. Median fluorescence was plotted against an untreated culture using Prism 8.0 (GraphPad Software), and statistical significance was determined using RM one-way ANOVA with Geisser–Greenhouse correction. The experiment was performed in three biologically independent replicates.

For experiment [10], the system named is T. gondii mitochondrion. Kind of experiment: Toxoplasma immunofluorescence assay of organelle morphology. In kind it is cell-based, Toxoplasma gondii. To be noted: 24 h at 3× EC50; DFX at 60 nM. The procedure:
For IFAs to assess organelle morphology, coverslips seeded with HFFs were infected with T. gondii tachyzoites, and 3 h later, compounds were added (at 3 times their respective EC50). Intracellular parasites and host cell monolayers were then fixed 24 h later with 4% (w/v) PFA (diluted in PBS) for 20 min. After fixation, cells were permeabilized with 0.3% (v/v) Triton X-100 (diluted in PBS) for 10 min. Coverslips were blocked with 2% (w/v) bovine serum albumin (BSA) for 1 h prior to immunolabeling with a primary antibody for 1 h. After 3 washes in PBS, a corresponding secondary antibody was incubated for 1 h. Coverslips were then incubated with 1 μg/mL of Hoechst stain for 5 min before 3 washes in PBS and, finally, mounted using Immu-Mount (Thermo Fisher) onto microscope slides. Primary antibodies used were prepared in 2% BSA (diluted in PBS) and used at the following concentrations: the apicoplast was stained using rabbit anti-PDH-E2 (1:500), the mitochondrion was stained using mouse anti-F1β ATPase (1:1000, gift of P. Bradley). Anti-mouse and anti-rabbit secondary antibodies were all from Thermo Fisher and were diluted at 1:4000. Image acquisition was performed with a Zeiss Axio Observer inverted microscope equipped with a Zeiss Axiocam 712 camera and 63×/1.4 or 100×/1.4 Oil Plan Achromat objectives. Images were processed with Zen Blue v3.6 software (Zeiss). Z-stack acquisitions were processed by a maximum-intensity orthogonal projection. Adjustments of brightness and contrast were applied uniformly, and paired images were acquired with the same exposure time. Quantifications of mitochondrial morphology were performed by microscopic observation of a series of at least 100 parasites, and data from three independent biological replicates was acquired and plotted using Prism 8.0 (GraphPad Software). Statistical significance was determined using one-way ANOVA with Tukey’s multiple-comparison test.

The mark [11] stands for this setting: intracellular stages, mean, n ≥ 3.

Consider `N#CC(C#N)=NNc1ccc(OC(F)(F)F)cc1` [FCCP, carbonyl cyanide p-trifluoromethoxyphenylhydrazone, reference compound], for which the “Mitotracker staining of T. gondii, microscopic observation” value in experiment [1] was “diffuse Mitotracker signal”.

Regarding `CC(=O)N(O)CCCCCNC(=O)CCC(=O)N(O)CCCCCNC(=O)CCC(=O)N(O)CCCCCN(CCCCCCCCCCCC[P+](c1ccccc1)(c1ccccc1)c1ccccc1)CCCCCCCCCCCC[P+](c1ccccc1)(c1ccccc1)c1ccccc1.Cl.[Cl-].[Cl-]` [compound 6, (triphenylphosphine-C12)2-DFO], the EC50 is 3.63 µM in experiment [2] and 0.0731 µM in experiment [3]. In [3], this molecule registered a T. brucei selectivity of 50.

Turning to `CCCCCCCC[P+](CCCCCCCC)(CCCCCCCC)CCCCCCCCCCN(CCCCCCCCCC[P+](CCCCCCCC)(CCCCCCCC)CCCCCCCC)CCCCCN(O)C(=O)CCC(=O)NCCCCCN(O)C(=O)CCC(=O)NCCCCCN(O)C(C)=O.Cl.[Cl-].[Cl-]` [compound 8, (trioctylphosphine-C10)2-DFO], the results for the EC50 in experiment [2] and in experiment [3] were 2.92 µM and 0.134 µM, respectively. This molecule also displayed a T. brucei selectivity in experiment [3] of 22.

Molecule (tributylamine-C10)2-DFO [compound 3] returned an EC50 in experiment [2] of 8.14 µM. In experiment [3], this molecule returned an EC50 of 0.0736 µM and a T. brucei selectivity of 111.

As for `CC(=O)N(O)CCCCCNC(=O)CCC(=O)N(O)CCCCCNC(=O)CCC(=O)N(O)CCCCCN(CCCCCCCCCC[P+](c1ccccc1)(c1ccccc1)c1ccccc1)CCCCCCCCCC[P+](c1ccccc1)(c1ccccc1)c1ccccc1.[Cl-].[Cl-]` [compound 2, (triphenylphosphine-C10)2-DFO], the EC50 in experiment [2] is 8.91 µM. In experiment [3], this molecule displayed an EC50 of 0.0569 µM and a T. brucei selectivity of 156.

Consider `O=C(NCCCCCC[P+](c1ccccc1)(c1ccccc1)c1ccccc1)c1ccc(-n2nc(-c3ccccc3O)nc2-c2ccccc2O)cc1.[Cl-]` [compound 13, triphenylphosphine-C6-DFX], for which, in experiment [2], the EC50 was determined as 15 µM. In experiment [3], the EC50 came out at 0.0498 µM and the T. brucei selectivity is 302.

Consider “(dimethylphenylphosphine-C10)2-DFO [compound 9]”, for which the EC50 is greater than 25 µM in experiment [2] and 1.15 µM in [3]. Also, the “decrease in antiparasitic activity compared with compound 2” value in experiment [3] (T. brucei) is given as roughly 20 fold.

In the case of `CC(=O)N(O)CCCCCNC(=O)CCC(=O)N(O)CCCCCNC(=O)CCC(=O)N(O)CCCCCN` [compound 16, deferoxamine, reference compound], the EC50 in experiment [2] and in experiment [3] (Trypanosoma brucei) was greater than 25 µM each time.

With “(tributylphosphine-C10)2-DFO [compound 4]”, in [2], the EC50 came out at 2.84 µM. In [3], this molecule showed an EC50 of 0.281 µM and a T. brucei selectivity of 10.

With “(triphenylphosphine-C10-triazole)2-DFO [compound 10]”, in [2], a half-maximal effect (EC50) was put at 4.13 µM. In [3], this molecule had a 50% effective concentration (EC50) of 0.134 µM and a T. brucei selectivity of 31.

Regarding `Oc1ccccc1-c1nc(-c2ccccc2O)n(CCCCCCCCCC[P+](c2ccccc2)(c2ccccc2)c2ccccc2)n1.[Br-]` [compound 11, triphenylphosphineBr-C10-norbenzoic-DFX], the EC50 in experiment [2] was 2.11 µM; in experiment [3], 0.0055 µM; in experiment [4] (bloodstream forms, mean, n ≥ 3), 0.0075 µM; in experiment [5] (axenic amastigotes, mean, n ≥ 3) it was 0.132 µM; in [6] (intracellular stages, plaque assay in HFFs, 7 days, n ≥ 3), 0.005 µM; in [7] (setting [11]), 0.0172 µM. This molecule also had a concentration for a half-maximal effect (EC50) in experiment [8] (setting [11]) of 0.238 µM. This molecule gave a T. brucei selectivity in experiment [3] greater than 300. The T. gambiense selectivity in [4] (relative to fibroblasts) was determined as 282. The molecule further returned a L. mexicana selectivity in experiment [5] (relative to fibroblasts) of 16. The T. gondii selectivity in experiment [6] (relative to fibroblasts) is 422. In experiment [7] (relative to fibroblasts), this molecule gave a B. divergens selectivity of 122. This molecule registered a P. falciparum selectivity in experiment [8] (relative to fibroblasts) of 9. The “mitochondrial membrane potential of T. brucei (relative to untreated)” value in experiment [9] is “less than 50%”. Moreover, the “Mitotracker staining of T. gondii, microscopic observation” value in [1] is on record as “strong decrease in Mitotracker staining”. Further, the “morphology of the T. gondii mitochondrion” value in experiment [10] is on record as “altered the morphology of the organelle”.

Turning to `CC(=O)N(O)CCCCCNC(=O)CCC(=O)N(O)CCCCCNC(=O)CCC(=O)N(O)CCCCCNCCCCCCCCCC[P+](c1ccccc1)(c1ccccc1)c1ccccc1` [compound 1, triphenylphosphine-C10-DFO], the EC50 was greater than 25 µM in [2] and 0.882 µM in experiment [3].

On to `CC(=O)N(O)CCCCCNC(=O)CCC(=O)N(O)CCCCCNC(=O)CCC(=O)N(O)CCCCCN(CCCCCCCCCC[P+](Cc1ccccc1)(Cc1ccccc1)Cc1ccccc1)CCCCCCCCCC[P+](Cc1ccccc1)(Cc1ccccc1)Cc1ccccc1.Cl.[Cl-].[Cl-]` [compound 7, (tribenzylphosphine-C10)2-DFO], for which the results for the EC50 in experiment [2] and in experiment [3] were 2.55 µM and 0.186 µM, respectively. This molecule had a T. brucei selectivity in [3] of 14.

For `O=C(O)c1ccc(-n2nc(-c3ccccc3O)nc2-c2ccccc2O)cc1` [compound 17, deferasirox, reference compound], the EC50 in experiment [2] is greater than 25 µM; in [3] (Trypanosoma brucei), 8.79 µM. Also, the “T. gondii mitochondrial membrane potential, flow cytometric quantification of Mitotracker labeling” value in experiment [1] (DFX at 60 nM) is on record as “no specific impact”. The “morphology of the T. gondii mitochondrion” value in [10] is reported as “largely preserved”.

In the case of `O=C(NCCCCCCCC[P+](c1ccccc1)(c1ccccc1)c1ccccc1)c1ccc(-n2nc(-c3ccccc3O)nc2-c2ccccc2O)cc1.[Cl-]` [compound 12, triphenylphosphine-C8-DFX], the EC50 in experiment [2] came out at 1.97 µM. Also, in [3], the midpoint of the response, the EC50, lay at 0.0358 µM and the T. brucei selectivity is recorded as 55.

As to “(tricylohexylphosphine-C10)2-DFO [compound 5]”, the EC50 in experiment [2] came to 3.08 µM. In experiment [3], this molecule had a concentration for a half-maximal effect (EC50) of 0.052 µM and a T. brucei selectivity of 59.
